pIC50: −log10 of the molar value.
Experiments:
[1] = In vitro cytotoxicity with L6 cells, Alamar Blue assay; assay type: cell-based, rat; details: L6 rat skeletal myoblasts, 70 h incubation
Protocol: (§1) In vitro cytotoxicity with L6 cells (a […] cell line derived from rat skeletal myoblasts) were performed in 96-well microtiter plates with each well containing 100 μl of RPMI 1640 medium supplemented with 1% L-glutamine (200 mM) and 10% fetal bovine serum and 4000 L6 cells. Serial drug dilutions from 100 to 0.002 μg/mL were prepared and after 70 h of incubation the plates were microscopically inspected to ensure the validity of control wells and sterile conditions. Then, 10 μl of Alamar Blue was added to each well and the plates incubated for an additional 2 h. Plates were read with a Spectramax Gemini XS microplate fluorometer (Molecular Devices Cooperation, Sunnyvale, CA, USA) using an excitation wave length of 536 nm and an emission wave length of 588 nm.

[2] = test system: L6 cells (rat skeletal myoblasts); experiment: In vitro cytotoxicity with L6 cells, Alamar Blue assay; assay type: cell-based
Protocol: as §1

[3] = test system: Trypanosoma brucei rhodesiense STIB900 (bloodstream trypomastigotes); experiment: In vitro antitrypanosomal activity, Alamar Blue assay; assay type: cell-based; details: 70 h, STIB900 bloodstream forms, 70 h incubation, read-out: IC50 T. b. rhodesiense
Protocol: Assays were performed as described by Bernal et al.. In vitro antitrypanosomal activities of compounds were determined against Trypanosoma brucei rhodesiense STIB900 (bloodstream trypomastigotes) where the parasitic stock was isolated in 1982 from a human patient in Tanzania. […] Then, 10 μl of Alamar Blue (resazurin, 12.5 mg in 100 mL double-distilled water) was added to each well and incubation continued for a further 2–4 h. Plates were read with a Spectramax Gemini XS microplate fluorometer (Molecular Devices Cooperation, Sunnyvale, CA, USA) using an excitation wavelength of 536 nm and an emission wavelength of 588 nm.

[4] = L6 cells (rat skeletal myoblasts)

Row | Compound | melting point [°C] | further results
1 | COc1cc([C@@H]2c3cc4c(cc3[C@H](O)[C@H]3COC(=O)[C@H]23)OCO4)cc(OC)c1OC [Podophyllotoxin, reference compound] |  | CC50 at 70 h [1]: 0.019 µM
2 | 4-(2-Methoxyphenyl)-6-(pyridin-4-yl)pyrimidin-2-amine [Compound 25] |  | CC50 [2]: > 70 µM
3 | Nc1nc(-c2cccnc2)cc(-c2cccc(F)c2)n1 [Compound 17, 4-(3-Fluorophenyl)-6-(pyridin-3-yl)pyrimidin-2-amine] | 196 to 198 | 
4 | Nc1nc(-c2cccnc2)cc(-c2cccc(Br)c2)n1 [Compound 16, 4-(3-Bromophenyl)-6-(pyridin-3-yl)pyrimidin-2-amine] | 169 to 171 | 
5 | c1cncc(-c2cc(-c3ccc4c(c3)OCO4)ncn2)c1 [Compound 10, 4-(2H-1,3-benzodioxol-5-yl)-6-(pyridin-3-yl)pyrimidine] | 173 to 175 | CC50 at 70 h [1, 4]: > 100 µM; pIC50 [3]: 5.17
6 | 4-(2-Methoxyphenyl)-6-(pyridin-2-yl)pyrimidin-2-amine [Compound 23] |  | CC50 [2]: > 100 µM
7 | COc1ccc(-c2cc(-c3cccnc3)nc(N)n2)cc1 [Compound 18, 4-(4-Methoxyphenyl)-6-(pyridin-3-yl)pyrimidin-2-amine] | 163 to 165 | 
8 | Fc1cccc(-c2cc(-c3cccnc3)ncn2)c1 [Compound 7, 4-(3-Fluorophenyl)-6-(pyridin-3-yl)pyrimidine] | 193 to 195 | 
9 | COc1ccc(-c2cc(-c3cccnc3)ncn2)cc1 [Compound 8, 4-(4-Methoxyphenyl)-6-(pyridin-3-yl)pyrimidine] | 165 to 167 | 
10 | 4-(2-Methoxyphenyl)-6-(pyridin-4-yl)pyrimidine [Compound 24] |  | CC50 [2]: > 100 µM

Further lines, with some results ahead:

Row | melting point [°C] | Compound | further results
11 | 210 to 211 | Nc1nc(-c2ccc(Br)cc2)cc(-c2cccnc2)n1 [Compound 19, 4-(4-Bromophenyl)-6-(pyridin-3-yl)pyrimidin-2-amine] | 
12 | 165 to 167 | COc1ccc(-c2cc(-c3cccnc3)nc(N)n2)cc1OC [Compound 20, 4-(3,4-Dimethoxyphenyl)-6-(pyridin-3-yl)pyrimidin-2-amine] | 
13 | 206 to 207 | c1cncc(-c2cc(-c3cccnc3)ncn2)c1 [Compound 2, 4,6-Bis(Pyridin-3-yl)pyrimidine] | 
14 | 124 to 125 | COc1cccc(-c2cc(-c3cccnc3)ncn2)c1 [Compound 5, 4-(3-Methoxyphenyl)-6-(pyridin-3-yl)pyrimidine] | 
15 | 102 to 104 | COc1ccccc1-c1cc(-c2cccnc2)ncn1 [Compound 3, 4-(2-Methoxyphenyl)-6-(pyridin-3-yl)pyrimidine] | 
16 | 162 to 163 | Brc1cccc(-c2cc(-c3cccnc3)ncn2)c1 [Compound 6, 4-(3-Bromophenyl)-6-(pyridin-3-yl)pyrimidine] | 
17 | 172 to 175 | Nc1nc(-c2ccccc2)cc(-c2cccnc2)n1 [Compound 11, 4-Phenyl-6-(pyridin-3-yl)pyrimidin-2-amine] | 
18 | 229 to 230 | Nc1nc(-c2cccnc2)cc(-c2cccnc2)n1 [Compound 12, 4,6-Bis(Pyridin-3-yl)pyrimidin-2-amine] | 
19 | 131 to 134 | COc1ccc(-c2cc(-c3cccnc3)ncn2)cc1OC [Compound 9, 4-(3,4-Dimethoxyphenyl)-6-(pyridin-3-yl)pyrimidine] | 
20 | 116 to 118 | c1ccc(-c2cc(-c3cccnc3)ncn2)cc1 [Compound 1, 4-Phenyl-6-(pyridin-3-yl)pyrimidine] | 
21 | 162 to 164 | COc1cccc(-c2cc(-c3cccnc3)nc(N)n2)c1 [Compound 15, 4-(3-Methoxyphenyl)-6-(pyridin-3-yl)pyrimidin-2-amine] | 
22 | 236 to 238 | Nc1nc(-c2cccnc2)cc(-c2ccc3c(c2)OCO3)n1 [Compound 21, 4-(2H-1,3-benzodioxol-5-yl)-6-(pyridin-3-yl)pyrimidin-2-amine] | CC50 at 70 h [1, 4]: > 100 µM; pIC50 [3]: 4.89
23 | 149 to 152 | Nc1nc(-c2cccnc2)cc(-c2ccccc2Br)n1 [Compound 14, 4-(2-Bromophenyl)-6-(pyridin-3-yl)pyrimidin-2-amine] | 

Reference: publication PMC7762786, “The discovery of novel antitrypanosomal 4-phenyl-6-(pyridin-3-yl)pyrimidines” (European Journal of Medicinal Chemistry, 2021)
